22 compounds from patent US20260274833A1 (NiKang Therapeutics, Inc., priority 2022, published 2026) can be followed below.

The target in this experiment is T1, CDK2 (Homo sapiens, UniProt P24941).
T1 construct: endogenous in cells; host or cells: OVCAR3 cells
Put plainly: Phospho-RB measurement in OVCAR3 cells (HTRF phospho-RB cellular kit). It is filed as cell-based. As to conditions: inhibition of RB phosphorylation at S807/811 (HTRF, TR-FRET ratio 665/620), 24 h compound treatment, 0.3 to 10,000 nM. The essentials:
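IC50 came from a four-parameter logistic fit of the DMSO-normalized TR-FRET ratio (665/620 nm). That ratio reflects RB phosphorylation at S807/811, read with an HTRF antibody pair 4 h after adding lysate at room temperature.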

Take `O=S1(=O)CC2(CC(Nc3nccc(-c4sc(C56CC(C5)C6)nc4-c4cccc(NS(=O)(=O)N5CCc6ccc(F)cc65)c4F)n3)C2)C1` [Example 29, N-(3-(2-(bicyclo [1.1.1]pentan-1-yl)-5-(2-((2,2-dioxido-2-thiaspiro[3.3]heptan-6-yl)amino)-pyrimidin-4-yl)thiazol-4-yl)-2-fluorophenyl)-6-fluoroindoline-1-sulfonamide]: the IC50 was found to be 70.8 nM.

With `CC(C)(C)c1nc(-c2cccc(NS(=O)(=O)N3CCc4ncccc43)c2F)c(-c2ccnc(NC3CCN(S(C)(=O)=O)CC3)n2)s1` [Example 141, N-(3-(2-(tert-butyl)-5-(2-((1-(methylsulfonyl)-piperidin-4-yl)amino)-pyrimidin-4-yl)thiazol-4-yl)-2-fluoro-phenyl)-2,3-dihydro-1H-pyrrolo [3,2-b]-pyridine-1-sulfonamide], the IC50 stood at 291 nM.

Take `COc1cccc2c1CN(S(=O)(=O)Nc1cccc(-c3nc(N4C5CCC4CN(C)C5)sc3-c3ccnc(NC4CC5(C4)CS(=O)(=O)C5)n3)c1F)C2` [Example 31, N-(3-(5-(2-((2,2-dioxido-2-thiaspiro-[3.3]-heptan-6-yl)amino)pyrimidin-4-yl)-2-(3-methyl-3,8-diazabicyclo [3.2.1]-octan-8-yl)-thiazol-4-yl)-2-fluoro-phenyl)-4-methoxy-isoindoline-2-sulfonamide]: the IC50 stood at 30.2 nM.

Take `CN(C)C(=O)c1cccc2c1CN(S(=O)(=O)Nc1cccc(-c3nc(C(C)(C)C)sc3-c3ccnc(NC4CCN(S(C)(=O)=O)CC4)n3)c1F)C2` [Example 163, 2-(N-(3-(2-(tert-butyl)-5-(2-((1-(methyl-sulfonyl)piperidin-4-yl)amino)pyrimidin-4-yl)thiazol-4-yl)-2-fluorophenyl)-sulfamoyl)-N, N-dimethyliso-indoline-4-carboxamide]: the IC50 was 2430 nM.

Turning to `CC(C)(C)c1nc(-c2cccc(NS(=O)(=O)N3CCc4c(CO)cccc43)c2F)c(-c2ccnc(NC3CC4(C3)CS(=O)(=O)C4)n2)s1` [Example 216, N-(3-(2-(tert-butyl)-5-(2-((2,2-dioxido-2-thiaspiro[3.3]heptan-6-yl)amino)-pyrimidin-4-yl)thiazol-4-yl)-2-fluoro-phenyl)-4-(hydroxymethyl) indoline-1-sulfonamide], the half-inhibitory concentration (IC50) was 65.4 nM.

With `CNC(=O)c1ccc2c(c1)N(S(=O)(=O)Nc1cccc(-c3nc(C(C)(C)C)sc3-c3ccnc(NC4CCN(S(C)(=O)=O)CC4)n3)c1F)CC2` [Example 151, 1-(N-(3-(2-(tert-butyl)-5-(2-((1-(methyl-sulfonyl)piperidin-4-yl)amino)pyrimidin-4-yl)thiazol-4-yl)-2-fluorophenyl)-sulfamoyl)-N-methylindoline-6-carboxamide], the IC50 stood at 355 nM.

`CNC(=O)c1cccc2c1CN(S(=O)(=O)Nc1cccc(-c3nc(C(C)(C)C)sc3-c3ccnc(NC4CCN(S(C)(=O)=O)CC4)n3)c1F)C2` [Example 145, 2-(N-(3-(2-(tert-butyl)-5-(2-((1-(methyl-sulfonyl)piperidin-4-yl)amino)pyrimidin-4-yl)thiazol-4-yl)-2-fluorophenyl)-sulfamoyl)-N-methyliso-indoline-4-carboxamide]: the IC50 is 389 nM.

In the case of `O=S1(=O)CC2(CC(Nc3nccc(-c4sc(C56CC(C5)C6)nc4-c4cccc(NS(=O)(=O)N5CCc6cc(C(F)(F)F)ccc65)c4F)n3)C2)C1` [Example 35, N-(3-(2-(bicyclo [1.1.1]pentan-1-yl)-5-(2-((2,2-dioxido-2-thiaspiro[3.3]heptan-6-yl)amino)-pyrimidin-4-yl)thiazol-4-yl)-2-fluorophenyl)-5-(trifluoromethyl)-indoline-1-sulfonamide], the 50% inhibitory concentration (IC50) amounted to 1590 nM.

Turning to `CN(C)CCN(C)S(=O)(=O)N1CCC(Nc2nccc(-c3sc(C(C)(C)C)nc3-c3cccc(NS(=O)(=O)N4CCOc5ccccc5C4)c3F)n2)CC1` [Example 105, N-(3-(2-(tert-butyl)-5-(2-((1-(N-(2-(dimethyl-amino)ethyl)-N-methyl-sulfamoyl)piperidin-4-yl)amino)-pyrimidin-4-yl)thiazol-4-yl)-2-fluoro-phenyl)-2,3-dihydrobenzo [f][1,4]-oxazepine-4 (5H)-sulfonamide], the IC50 was 215 nM.

As for `O=S1(=O)CC2(CC(Nc3nccc(-c4sc(C56CC(C5)C6)nc4-c4cccc(NS(=O)(=O)N5CC6CCC5CC6)c4F)n3)C2)C1` [Example 267, (1s,4s)-N-(3-(2-(bicyclo[1.1.1]pentan-]-yl)-5-(2-((2,2-dioxido-2-thiaspiro-[3.3]heptan-6-yl)amino)pyrimidin-4-yl)thiazol-4-yl)-2-fluorophenyl)-2-azabicyclo[2.2.2] octane-2-sulfonamide], the IC50 is 9410 nM.

As for `CC(C)(C)c1nc(-c2cccc(NS(=O)(=O)N3CCNc4ccccc43)c2F)c(-c2ccnc(NC3CCN(S(C)(=O)=O)CC3)n2)s1` [Example 106, N-(3-(2-(tert-butyl)-5-(2-((1-(methylsulfonyl)piperidin-4-yl)amino)-pyrimidin-4-yl)thiazol-4-yl)-2-fluorophenyl)-3,4-dihydroquinoxaline-1(2H)-sulfonamide], the 50% inhibitory concentration (IC50) came out at 263 nM.

In the case of `CC(C)(C)c1nc(-c2cccc(NS(=O)(=O)N3Cc4ccc(F)cc4C3)c2F)c(-c2ccnc(NC3CCN(S(=O)(=O)N4CCNCC4)CC3)n2)s1` [Example 144, N-(3-(2-(tert-butyl)-5-(2-((1-(piperazin-1-ylsulfonyl)piperidin-4-yl)amino)-pyrimidin-4-yl)thiazol-4-yl)-2-fluoro-phenyl)-5-fluoro-isoindoline-2-sulfonamide], the IC50 was 227 nM.

On to `O=S1(=O)CC2(CC(Nc3nccc(-c4sc(C56CC(C5)C6)nc4-c4cccc(NS(=O)(=O)N5CCc6ccc(OC(F)(F)F)cc65)c4F)n3)C2)C1` [Example 36, N-(3-(2-(bicyclo [1.1.1]pentan-1-yl)-5-(2-((2,2-dioxido-2-thiaspiro [3.3]heptan-6-yl)amino)-pyrimidin-4-yl)thiazol-4-yl)-2-fluorophenyl)-6-(trifluoromethoxy) indoline-1-sulfonamide], for which the half-inhibitory concentration (IC50) came to 195 nM.

Take `CC(C)(C)c1nc(-c2cccc(NS(=O)(=O)N3CCc4ccccc43)c2F)c(-c2ccnc(NC3CCN(S(=O)(=O)N4CCNCC4)CC3)n2)s1` [Example 158, N-(3-(2-(tert-butyl)-5-(2-((1-(piperazin-1-ylsulfonyl)piperidin-4-yl)amino)-pyrimidin-4-yl)thiazol-4-yl)-2-fluoro-phenyl)indoline-1-sulfonamide]: the IC50 worked out at 99.6 nM.

For `CS(=O)(=O)[C@H]1CC[C@H](Nc2nccc(-c3sc(C45CC(C(F)(F)F)(C4)C5)nc3-c3cccc(NS(=O)(=O)N4CCc5ccccc54)c3F)n2)CC1` [Example 53], the IC50 amounted to 262 nM.

In the case of `CC(C)(C)c1nc(-c2cccc(NS(=O)(=O)N3CCc4ccccc4CC3)c2F)c(-c2ccnc(NC3CCN(S(C)(=O)=O)CC3)n2)s1` [Example 81, N-(3-(2-(tert-butyl)-5-(2-((1-(methylsulfonyl)-piperidin-4-yl)amino)-pyrimidin-4-yl)thiazol-4-yl)-2-fluoro-phenyl)-1,2,4,5-tetrahydro-3H-benzo[d]azepine-3-sulfonamide], the IC50 amounted to 3730 nM.

Consider `CC(C)(C)c1nc(-c2cccc(NS(=O)(=O)N3Cc4ccncc4C3)c2F)c(-c2ccnc(NC3CCN(S(C)(=O)=O)CC3)n2)s1` [Example 103, N-(3-(2-(tert-butyl)-5-(2-((1-(methylsulfonyl)piperidin-4-yl)amino)-pyrimidin-4-yl)thiazol-4-yl)-2 fluorophenyl)-1,3-dihydro-2H-pyrrolo[3,4-c] pyridine-2-sulfonamide], for which the IC50 worked out at 142 nM.

On to `CC(C)(C)c1nc(-c2cccc(NS(=O)(=O)N3Cc4ccc(C(F)(F)F)cc4C3)c2F)c(-c2ccnc(NC3CCN(S(C)(=O)=O)CC3)n2)s1` [Example 243, N-(3-(2-(tert-butyl)-5-(2-((1-(methylsulfonyl)-piperidin-4-yl)amino)-pyrimidin-4-yl)thiazol-4-yl)-2-fluoro-phenyl)-5-(trifluoromethyl)-isoindoline-2-sulfonamide], for which the IC50 is 1200 nM.

Regarding `COCCOCCN1CCN(c2ccc(Nc3nccc(-c4sc(C(C)(C)C)nc4-c4cccc(NS(=O)(=O)N5CCc6ccc(C#N)cc65)c4F)n3)cc2)CC1` [Example 234, N-(3-(2-(tert-butyl)-5-(2-((4-(4-(2-(2-methoxy-ethoxy)ethyl)piperazin-1-yl)phenyl)amino)-pyrimidin-4-yl)thiazol-4-yl)-2-fluorophenyl)-6-cyanoindoline-1-sulfonamide], the IC50 amounted to 1200 nM.

For the compound `CC(C)(C)c1nc(-c2cccc(NS(=O)(=O)N3Cc4cccc(OC(F)F)c4C3)c2F)c(-c2ccnc(NC3CC4(C3)CS(=O)(=O)C4)n2)s1` [Example 205, N-(3-(2-(tert-butyl)-5-(2-((2,2-dioxido-2-thiaspiro[3.3]heptan-6-yl)amino)-pyrimidin-4-yl)thiazol-4-yl)-2-fluorophenyl)-4-(difluoromethoxy)-isoindoline-2-sulfonamide], the IC50 came out at 40.4 nM.

With `CC(C)(C)c1nc(-c2cccc(NS(=O)(=O)N3CCc4ccc(C#N)cc43)c2F)c(-c2ccnc(Nc3ccc(S(C)(=O)=O)cc3)n2)s1` [Example 242, N-(3-(2-(tert-butyl)-5-(2-((4-(methylsulfonyl)-phenyl)amino)-pyrimidin-4-yl)thiazol-4-yl)-2-fluoro-phenyl)-6-cyanoindoline-1-sulfonamide], the IC50 came out at 302 nM.

Regarding `CC(C)(C)c1nc(-c2cccc(NS(=O)(=O)N3CCCCc4ccccc43)c2F)c(-c2ccnc(NC3CCN(S(C)(=O)=O)CC3)n2)s1` [Example 82, N-(3-(2-(tert-butyl)-5-(2-((1-(methylsulfonyl)piperidin-4-yl)amino)-pyrimidin-4-yl)thiazol-4-yl)-2-fluorophenyl)-2,3,4,5-tetrahydro-1H-benzo[b]azepine-1-sulfonamide], the IC50 worked out at 850 nM.

As a reminder, the IC50 is the concentration that gives 50% inhibition.
